Reference: the supplement of paper PMC11208160

Test: recombinant UMI read abundance after kanamycin selection (control-corrected) (log10(CPM+1)); higher = more efficient recombination; extreme values may be limits of the assay; sequences stand for … in AGTGCAGAGAAAATCGGCCAGTTTTCTCTGCCTGCAGTCCGCATGCCGTGGGACCCCTTGGGTTCTAACCTGTTGCCTAGATTTATGCAGCGGACTGCCTTTCTCCCAAAGTGATAAACCGG…AGGTTGGTTTCACT; site = the 11-nt donor
Procedure: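 Pooled E. coli donor-specificity screen for the IS621 bridge recombinase. Each library member carries a reprogrammed 11-nt donor and a full-length LE bridge RNA expressed in cis from the natural promoter, with a paired donor-binding loop (8-nt LDG + 4-nt RDG) and a target-binding loop fixed to T5. It is co-electroporated with a T5 target plasmid; recombinase is induced with 0.07 mM IPTG and recombinants are selected on kanamycin. UMIs are counted as CPM, averaged over two biological replicates and corrected by the unselected control. Molecule = full bridge RNA written as DNA, built from the T5 scaffold: LDG = donor specificity nt 1-8, RDG = reverse complement of nt 8-11.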
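Also: IS621 bridge recombinase in Escherichia coli cells against a fixed T5 target plasmid.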

Row | Sequence | recombinant UMI read abundance (log10)
1 | ACACTCCCATGGACCGGTTTTCCCGGTAATCCGTATTTGCG (site CTGACGACTAC) | 0.0266
2 | ACACTGGCATGGACCGGTTTTCCCGGTAATCCGTATTTGAG (site ACACTGGCTCT) | 1.38
3 | ACAGATCCATGGACCGGTTTTCCCGGTAATCCGTATTTGAC (site ACAAATCCTGT) | 0
4 | ACAGATCCATGGACCGGTTTTCCCGGTAATCCGTATTTGAC (site ACACATCCTGT) | 0
5 | ACAGATCCATGGACCGGTTTTCCCGGTAATCCGTATTTGAC (site ACAGATCCTGT) | 0.651
6 | ACAGATCCATGGACCGGTTTTCCCGGTAATCCGTATTTGAC (site ACATATCCTGT) | 0.985
7 | ACAGCATCATGGACCGGTTTTCCCGGTAATCCGTATTTGCA (site ACAGAATCTTG) | 0.803
8 | ACAGCATCATGGACCGGTTTTCCCGGTAATCCGTATTTGCA (site ACAGCATCTTG) | 2.11
9 | ACAGCATCATGGACCGGTTTTCCCGGTAATCCGTATTTGCA (site ACAGGATCTTG) | 0
10 | ACAGCATCATGGACCGGTTTTCCCGGTAATCCGTATTTGCA (site ACAGTATCTTG) | 1.73
11 | ACAGCTTCATGGACCGGTTTTCCCGGTAATCCGTATTTGGC (site ACAGCTTCTGC) | 3.35
12 | ACAGGACCATGGACCGGTTTTCCCGGTAATCCGTATTTGCA (site ACAGGACCTTG) | 0
13 | ACAGGACCATGGACCGGTTTTCCCGGTAATCCGTATTTGCA (site ACAGTATCTTG) | 1.52
14 | ACAGGATCATGGACCGGTTTTCCCGGTAATCCGTATTTGAA (site ACAGGATCTTT) | 2.93
15 | ACAGGATCATGGACCGGTTTTCCCGGTAATCCGTATTTGAA (site ACAGTATCTTG) | 0
16 | ACAGGTGCATGGACCGGTTTTCCCGGTAATCCGTATTTGAT (site ACAGGTGCTAT) | 2.2
17 | ACAGGTGCATGGACCGGTTTTCCCGGTAATCCGTATTTGAT (site CCAGGTGCTAT) | 2.2
18 | ACAGGTGCATGGACCGGTTTTCCCGGTAATCCGTATTTGAT (site GCAGGTGCTAT) | 0.572
19 | ACAGGTGCATGGACCGGTTTTCCCGGTAATCCGTATTTGAT (site TCAGGTGCTAT) | 1.78
20 | ACAGTAACATGGACCGGTTTTCCCGGTAATCCGTATTTGCA (site ACAGTAACTTG) | 2.83
21 | ACAGTAACATGGACCGGTTTTCCCGGTAATCCGTATTTGCA (site ACAGTACCTTG) | 0
22 | ACAGTAACATGGACCGGTTTTCCCGGTAATCCGTATTTGCA (site ACAGTAGCTTG) | 1.39
23 | ACAGTAACATGGACCGGTTTTCCCGGTAATCCGTATTTGCA (site ACAGTATCTTG) | 1.65
24 | ACAGTAACATGGACCGGTTTTCCCGGTAATCCGTATTTGGA (site ACAGTAACTTC) | 2.19

Row | Sequence | recombinant UMI read abundance (log10)
25 | ACAGTAACATGGACCGGTTTTCCCGGTAATCCGTATTTGGA (site ACAGTATCTTG) | 0
26 | ACAGTATCATGGACCGGTTTTCCCGGTAATCCGTATTTGGA (site ACAGTATCTTA) | 2.36
27 | ACAGTATCATGGACCGGTTTTCCCGGTAATCCGTATTTGGA (site ACAGTATCTTC) | 2.88
28 | ACAGTATCATGGACCGGTTTTCCCGGTAATCCGTATTTGGA (site ACAGTATCTTG) | 2.02
29 | ACAGTATCATGGACCGGTTTTCCCGGTAATCCGTATTTGGA (site ACAGTATCTTT) | 2.61
30 | ACAGTGGCATGGACCGGTTTTCCCGGTAATCCGTATTTGCT (site ACAGTGGCTAG) | 2.32
31 | ACAGTTCCATGGACCGGTTTTCCCGGTAATCCGTATTTGAA (site ACAGTTCCTTT) | 1.36
32 | ACAGTTTCATGGACCGGTTTTCCCGGTAATCCGTATTTGTA (site ACAGTATCTTG) | 1.19
33 | ACAGTTTCATGGACCGGTTTTCCCGGTAATCCGTATTTGTA (site ACAGTTTCTTA) | 2.49
34 | ACATAGACATGGACCGGTTTTCCCGGTAATCCGTATTTGGG (site ACATAGACTCC) | 0.469
35 | ACATAGACATGGACCGGTTTTCCCGGTAATCCGTATTTGGG (site ACCTAGACTCC) | 0.0175
36 | ACATAGACATGGACCGGTTTTCCCGGTAATCCGTATTTGGG (site ACGTAGACTCC) | 0.00831
37 | ACATAGACATGGACCGGTTTTCCCGGTAATCCGTATTTGGG (site ACTTAGACTCC) | 0.0189
38 | ACATATCCATGGACCGGTTTTCCCGGTAATCCGTATTTGAC (site ACAAATCCTGT) | 0
39 | ACATATCCATGGACCGGTTTTCCCGGTAATCCGTATTTGAC (site ACACATCCTGT) | 0.817
40 | ACATATCCATGGACCGGTTTTCCCGGTAATCCGTATTTGAC (site ACAGATCCTGT) | 0
41 | ACATATCCATGGACCGGTTTTCCCGGTAATCCGTATTTGAC (site ACATATCCTGT) | 1.43
42 | ACATCATCATGGACCGGTTTTCCCGGTAATCCGTATTTGCT (site ACATCATCTAG) | 1.39
43 | ACATCATCATGGACCGGTTTTCCCGGTAATCCGTATTTGCT (site CGATCATCTAG) | 1.05
44 | ACATCTGCATGGACCGGTTTTCCCGGTAATCCGTATTTGGT (site ACATCTGCTAC) | 2.1
45 | ACATCTGCATGGACCGGTTTTCCCGGTAATCCGTATTTGTG (site ACATCTACTCA) | 0.401
46 | ACATCTGCATGGACCGGTTTTCCCGGTAATCCGTATTTGTG (site ACATCTCCTCA) | 0.0207
47 | ACATCTGCATGGACCGGTTTTCCCGGTAATCCGTATTTGTG (site ACATCTGCTCA) | 1.37
48 | ACATCTGCATGGACCGGTTTTCCCGGTAATCCGTATTTGTG (site ACATCTTCTCA) | 0.5

Row | Sequence | recombinant UMI read abundance (log10)
49 | ACATGAACATGGACCGGTTTTCCCGGTAATCCGTATTTGAG (site ACATGAACTCT) | 2.07
50 | ACATGAACATGGACCGGTTTTCCCGGTAATCCGTATTTGTC (site ACAAGAACTGA) | 0
51 | ACATGAACATGGACCGGTTTTCCCGGTAATCCGTATTTGTC (site ACACGAACTGA) | 0.197
52 | ACATGAACATGGACCGGTTTTCCCGGTAATCCGTATTTGTC (site ACAGGAACTGA) | 0
53 | ACATGAACATGGACCGGTTTTCCCGGTAATCCGTATTTGTC (site ACATGAACTGA) | 1.57
54 | ACATGACCATGGACCGGTTTTCCCGGTAATCCGTATTTGCC (site ACATGACCTGG) | 0
55 | ACATGCGCATGGACCGGTTTTCCCGGTAATCCGTATTTGCA (site ACATGCGCTTG) | 2.86
56 | ACATGTACATGGACCGGTTTTCCCGGTAATCCGTATTTGGT (site ACATGTACTAC) | 1.73
57 | ACATTCTCATGGACCGGTTTTCCCGGTAATCCGTATTTGCC (site ACATTCTCTGG) | 1.63
58 | ACATTGACATGGACCGGTTTTCCCGGTAATCCGTATTTGAA (site ACATTGACTTT) | 1.76
59 | ACATTTACATGGACCGGTTTTCCCGGTAATCCGTATTTGTG (site ACATATACTCA) | 0.00866
60 | ACATTTACATGGACCGGTTTTCCCGGTAATCCGTATTTGTG (site ACATCTACTCA) | 0.162
61 | ACATTTACATGGACCGGTTTTCCCGGTAATCCGTATTTGTG (site ACATGTACTCA) | 0.287
62 | ACATTTACATGGACCGGTTTTCCCGGTAATCCGTATTTGTG (site ACATTTACTCA) | 0.706
63 | ACCAACTCATGGACCGGTTTTCCCGGTAATCCGTATTTGCC (site ACCAACTCTGG) | 1.81
64 | ACCACGCCATGGACCGGTTTTCCCGGTAATCCGTATTTGTA (site ACCACGCCTTA) | 0.0245
65 | ACCACGCCATGGACCGGTTTTCCCGGTAATCCGTATTTGTA (site CCCACGCCTTA) | 0.143
66 | ACCACGCCATGGACCGGTTTTCCCGGTAATCCGTATTTGTA (site GCCACGCCTTA) | 0.00875
67 | ACCACGCCATGGACCGGTTTTCCCGGTAATCCGTATTTGTA (site TCCACGCCTTA) | 0.0133
68 | ACCAGCTCATGGACCGGTTTTCCCGGTAATCCGTATTTGCT (site ACCAGCTCTAG) | 2.25
69 | ACCAGGTCATGGACCGGTTTTCCCGGTAATCCGTATTTGTA (site ACCAGGTCTTA) | 2.54
70 | ACCATATCATGGACCGGTTTTCCCGGTAATCCGTATTTGCA (site ACAGTATCTTG) | 0.937
71 | ACCATATCATGGACCGGTTTTCCCGGTAATCCGTATTTGCA (site ACCATATCTTG) | 2.3
72 | ACCCATCCATGGACCGGTTTTCCCGGTAATCCGTATTTGAC (site ACACATCCTGT) | 0.0114
